Measurements as given in patent US20160166604A1, “Thiol-Sensitive Positive Inotropes” (priority 2005, published 2016).
“Also recorded” adds a separate entry of the source.

Experiments:
SR Ca2+ pump (SERCA2a) = target: T1, SR Ca2+ pump (SERCA2a) (Mus musculus, UniProt O55143); assay: ATP-dependent Ca2+ uptake by murine cardiac SR vesicles (stopped-flow, arsenazo III); assay type: biochemical; set-up: total Ca2+ uptake at equilibrium: unit not given here
T1 construct: Crude cardiac microsomal vesicles containing fragmented sarcoplasmic reticulum (SR) were prepared; from tissue; host or cells: pooled hearts of C57 male mice (crude SR microsomal vesicles)
T1 sequence (O55143 1-998 isoform O55143-2): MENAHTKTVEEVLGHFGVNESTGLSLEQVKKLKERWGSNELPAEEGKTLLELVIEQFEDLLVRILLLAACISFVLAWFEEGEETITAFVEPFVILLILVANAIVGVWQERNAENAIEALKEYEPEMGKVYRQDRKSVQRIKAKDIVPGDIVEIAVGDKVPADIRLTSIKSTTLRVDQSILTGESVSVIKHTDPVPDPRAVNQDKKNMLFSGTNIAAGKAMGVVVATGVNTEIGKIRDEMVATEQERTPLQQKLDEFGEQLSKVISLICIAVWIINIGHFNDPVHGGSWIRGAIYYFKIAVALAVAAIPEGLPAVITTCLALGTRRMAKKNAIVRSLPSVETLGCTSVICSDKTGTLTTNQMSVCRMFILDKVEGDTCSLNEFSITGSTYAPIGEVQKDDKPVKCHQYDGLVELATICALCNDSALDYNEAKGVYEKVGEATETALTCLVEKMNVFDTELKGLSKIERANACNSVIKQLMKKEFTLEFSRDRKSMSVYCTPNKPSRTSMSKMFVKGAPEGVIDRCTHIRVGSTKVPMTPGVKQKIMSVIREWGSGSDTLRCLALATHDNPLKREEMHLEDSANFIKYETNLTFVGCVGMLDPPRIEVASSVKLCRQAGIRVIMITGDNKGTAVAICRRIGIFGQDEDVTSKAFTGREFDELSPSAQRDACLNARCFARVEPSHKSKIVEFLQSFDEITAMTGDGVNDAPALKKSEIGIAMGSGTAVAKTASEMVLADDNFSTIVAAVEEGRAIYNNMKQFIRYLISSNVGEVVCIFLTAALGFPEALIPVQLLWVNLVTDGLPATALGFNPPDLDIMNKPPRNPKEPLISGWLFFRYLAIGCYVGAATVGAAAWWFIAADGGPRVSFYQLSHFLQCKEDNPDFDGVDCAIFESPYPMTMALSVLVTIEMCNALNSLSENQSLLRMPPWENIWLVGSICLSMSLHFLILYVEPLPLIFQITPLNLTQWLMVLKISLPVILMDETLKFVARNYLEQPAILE
Procedure: Crude cardiac microsomal vesicles containing fragmented sarcoplasmic reticulum (SR) were prepared as previously described for rat heart. Froehlich, J. P. et al., J. Mol. Cell. Cardiol., 10, 427-438 (1978). Pooled hearts from C57 male mice sacrificed by cervical dislocation were placed in 0.9% saline on ice, trimmed of atrial and connective tissue, and weighed. The finely minced heart muscle was homogenized in 10 mM NaHCO3 using a Polytron blender and the SR vesicles were separated from the myofilaments, mitochondria and nuclear membranes by differential centrifugation at 8,500 and 45,000×g. SR vesicles suspended in 0.25 M sucrose+10 mM MOPS, pH 7.0 were frozen and stored in liquid nitrogen prior to use. Twenty minutes prior to measuring Ca^2+ uptake, cardiac SR vesicles (1 mg/ml in storage buffer) were incubated with 250 μM AS delivered from a freshly-prepared 10 mM stock solution of AS (Na2N2O3) dissolved in 10 mM NaOH. […] Stopped-flow mixing was used to measure the initial time course of Ca^2+ accumulation by murine cardiac SR vesicles using the Ca^2+ indicator dye, arsenazo III. Membrane vesicles (0.4 mg/ml) suspended in a medium containing 100 mM KCl, 1 mM MgCl2, 50 μM arsenazo III, 5 mM sodium azide, and 20 mM MOPS, pH 7.4, were mixed with an equal volume of an identical medium containing 1 mM Na2ATP at 24° C. in a manually-operated stopped-flow apparatus (Applied Photophysics, Ltd.). The change in [Ca^2+] in the mixing cuvette was monitored using a single-beam UV-VIS spectrophotometer (AVIV, Model 14DS) with a monochromator setting of 650 nm. The total [Ca^2+] in the uptake medium was 0.5 μM, yielding a free [Ca^2+] in equilibrium with the Ca-arsenazo III complex of 0.2 μM (KA=3.3×10^4 M^−1). […] The time-dependent decrease in absorbance at 650 nm, reflecting Ca^2+ uptake by the SR vesicles, was monitored for 30-60 s at 0.1 s intervals. […] The signal change due to vesicle light scattering was evaluated from separate measurements conducted under identical conditions at the isosbestic wavelength of 693 nm. For evaluation of the time course of Ca^2+ uptake, a representative trace at 693 nm was subtracted from each of the individual traces at 650 nm acquired under identical conditions. The kinetic and thermodynamic parameters for Ca^2+ uptake were evaluated by fitting stopped-flow signals to one- and two-exponential decay functions plus a residual term using non-linear regression (Prism, Version 3.03). Residual plots of the difference between the fitted curve and data points were used to evaluate systematic errors in the fits and to calculate the sum-of-squares error used in selecting the best fit.
To test whether HNO directly enhances SR Ca^2+ uptake, its effects on SR membrane vesicles isolated from pooled C57/Bl6 mouse hearts were studied. Crude SR microsomal vesicles were incubated with 250 μM AS prior to measuring ATP-dependent Ca uptake by stopped-flow mixing at 24° C. Arsenazo III, a mid-range Ca indicator, was used to monitor Ca removal from the eravesicular compartment and buffer the free [Ca^2+] at a level producing half-saturation of the Ca^2+ pump (˜0.2 μM).

RyR2 = target: T2, RyR2 (Mus musculus, UniProt E9Q401); assay: Spontaneous Ca2+ sparks and spark frequency in intact murine myocytes; assay type: cell-based
T2 construct: endogenous in cells; host or cells: freshly isolated adult mouse cardiac myocytes
Procedure: Freshly isolated mouse cardiac myocytes were loaded with the Ca^2+ indicator fluo-4/AM (Molecular Probes, 20 μM for 30 min). Confocal images were acquired using a confocal laser-scanning microscope (LSM510, Carl Zeiss) with a Zeiss Plan-Neofluor 40× oil immersion objective (NA≈1.3). Fluo-4/AM was excited by an argon laser (488 nm), and fluorescence was measured at >505 nm. Images were taken in the line-scan mode, with the scan line parallel to the long axis of the myocytes. Each image consisted of 512 line scans obtained at 1.92 ms intervals, each comprising 512 pixels at 0.10 μm separation. Digital image analysis used customer-designed programs coded in Interactive Data language (IDL) and a modified spark detection algorithm. Cheng, H. et al., Biophys. J., 76, 606-617 (1999).
Nitroxyl (HNO) confers positive inotropy in vivo. Here, it was determined whether HNO action stems from a direct influence on sarcoplasmic reticulum (SR) Ca^2+ cycling, involving enhanced Ca^2+ release from ryanodine receptors (RyR2). Myocytes were isolated from ST mice, suspended in Tyrode's solution (1 mM Ca^2+) and field stimulated (0.5 Hz, 25° C.). Sarcomere shortening (SS) was assessed by real-time image analysis, Ca^2+ transients from Indo-1 fluorescence. RyR2 activity was determined by optical imaging of Ca^2+ release from single Ca^2+ release units. The HNO donor Angeli's Salt (AS) induced dose-dependent inotropy (SS: 73±31% at 0.5 mM; 131±31% at 1 mM; all n=15, p<0.05 vs. base; <0.1 mM: no effect). In contrast, the NO donor DEA/NO reduced SS by 55-65% at 5-50 μM (both p<0.05 vs. base), with no effect at higher doses. […] However, co-infusion with the thiol-donating compound N-acetyl-L-cysteine (NAC, 3 mM) abolished AS inotropy.

SERCA2a = target: T3, SERCA2a (Canis lupus familiaris, UniProt O46674); assay: Ca-ATPase partial reactions and Vmax in cardiac SR vesicles from normal and failing dog hearts; assay type: biochemical; details: for stimulation of maximal Ca-ATPase activity compared to control / spontaneous E2P hydrolysis rate: 0.25 mM AS; for stimulation of maximal Ca-ATPase activity compared to control: 2.5 mM oxalate
T3 construct: sealed cardiac sarcoplasmic reticulum (CSR) membrane vesicles isolated from normal (N) and failing (F); from tissue; host or cells: dog heart, normal and tachy-pacing-induced failing (sealed cardiac SR vesicles)
T3 sequence (O46674 whole entry): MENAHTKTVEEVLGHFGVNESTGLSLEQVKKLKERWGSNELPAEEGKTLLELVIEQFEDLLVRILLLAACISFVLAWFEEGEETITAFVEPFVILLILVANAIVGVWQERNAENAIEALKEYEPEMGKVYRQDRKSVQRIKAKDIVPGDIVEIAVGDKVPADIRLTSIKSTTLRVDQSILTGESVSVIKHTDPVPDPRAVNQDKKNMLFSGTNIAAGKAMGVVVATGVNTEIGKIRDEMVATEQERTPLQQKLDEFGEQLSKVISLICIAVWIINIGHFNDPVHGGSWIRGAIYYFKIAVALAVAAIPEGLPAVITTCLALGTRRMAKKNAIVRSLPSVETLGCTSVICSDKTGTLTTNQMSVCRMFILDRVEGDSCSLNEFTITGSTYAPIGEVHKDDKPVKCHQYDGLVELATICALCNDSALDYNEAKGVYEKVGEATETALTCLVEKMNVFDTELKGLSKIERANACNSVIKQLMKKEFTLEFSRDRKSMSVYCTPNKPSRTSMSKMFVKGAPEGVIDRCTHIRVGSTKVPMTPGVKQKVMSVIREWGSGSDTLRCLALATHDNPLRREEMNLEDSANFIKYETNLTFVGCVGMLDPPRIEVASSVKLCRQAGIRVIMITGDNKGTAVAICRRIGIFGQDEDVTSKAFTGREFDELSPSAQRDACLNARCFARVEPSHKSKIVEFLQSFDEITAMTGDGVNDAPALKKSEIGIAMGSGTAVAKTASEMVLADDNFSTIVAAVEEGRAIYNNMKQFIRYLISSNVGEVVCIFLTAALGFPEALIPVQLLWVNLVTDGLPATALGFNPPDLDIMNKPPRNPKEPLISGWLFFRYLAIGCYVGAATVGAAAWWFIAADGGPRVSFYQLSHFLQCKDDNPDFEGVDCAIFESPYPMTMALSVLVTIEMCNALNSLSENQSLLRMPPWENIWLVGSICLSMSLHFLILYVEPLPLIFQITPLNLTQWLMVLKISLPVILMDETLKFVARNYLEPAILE
Procedure: The effect of AS on Ca-ATPase partial reactions and Vmax was measured in sealed cardiac sarcoplasmic reticulum (CSR) membrane vesicles isolated from normal (N) and failing (F) (tachy-pacing-induced) dog hearts. […] In the presence of 2.5 mM oxalate (Ca^2+-loading conditions), 0.25 mM AS stimulated maximal Ca-ATPase activity in N and F CSR (4% vs. 9% compared to control). […] This relieves back inhibition of SERCA2a by the Ca^2+ transport gradient, increasing Vmax.

Q: Which results are given for `[Na+].[Na+].[O-][N+]([O-])=NO` [AS, Angeli's salt]?
A: increase of rate constant for Ca2+ uptake (SR Ca2+ pump (SERCA2a); 250 μM AS, 0.2 μM free Ca2+, 24° C., n=6): 104%; rate constant for Ca2+ uptake (SR Ca2+ pump (SERCA2a); 250 μM AS, without AS 0.1563): 0.3204 s⁻¹; rate of initial Ca2+ uptake (SR Ca2+ pump (SERCA2a); AS 250 μM): enhanced; total Ca2+ uptake at equilibrium (SR Ca2+ pump (SERCA2a); after AS exposure, before 0.00257±0.0003, p=NS): 0.00202±0.000; SR Ca2+ uptake activity after AS solution decayed completely to products (SR Ca2+ pump (SERCA2a); decayed AS test solution (e.g. nitrite)): No stimulation; calcium spark frequency relative to controls (RyR2; 0.5 mM AS): ~7 times; increase of calcium spark frequency (RyR2; 0.5 mM AS): 7 fold; frequency of calcium sparks (CSF) (RyR2; 0.5 mM AS, controls 4±1): 26±3 sparks/100 μm/s; rise in Ca2+ spark frequency (RyR2; 1 mM AS, n=10-24): 18 fold; individual spark amplitude, rise time and spatial width (RyR2; AS): unaltered; AS-induced increase in spark frequency after thiol (GSH) pre-treatment (RyR2; reduced glutathione preincubation before AS): prevented; also recorded: abrogated; Vmax stimulation in presence of Ca2+ ionophore A23187 (SERCA2a; AS with A23187): abolished; stimulation of maximal Ca-ATPase activity compared to control (SERCA2a; F CSR): 9%; stimulation of maximal Ca-ATPase activity compared to control (SERCA2a; N CSR): 4%; Vmax stimulation (SERCA2a; N CSR, AS, without oxalate): 27%; spontaneous E2P hydrolysis rate (SERCA2a; failing (F) CSR, without AS 11): 111 s⁻¹; spontaneous E2P hydrolysis rate (SERCA2a; normal (N) CSR, without AS 12): 76 s⁻¹
